According to article PMC7616174, “Development of Novel 4-Arylpyridin-2-one and 6-Arylpyrimidin-4-one Positive Allosteric Modulators of the M1 Muscarinic Acetylcholine Receptor” (ChemMedChem, 2020):
Where two headings read alike, the source gives them in different places.

Assays:
hM1 mAChR [1] = biological target: T1, hM1 mAChR (Homo sapiens, UniProt P11229); assay: IP1 accumulation assay (ACh concentration-response curves in absence or presence of modulator); format: cell-based; settings: for αβ (functional cooperativity with ACh) / τB (intrinsic efficacy of the modulator) / log τB (logarithm of intrinsic efficacy of the modulator) / log αβ (logarithm of functional cooperativity between ACh and modulator): IP1 accumulation; for αβ (functional cooperativity with ACh) / τB (intrinsic efficacy of the modulator): antilog, in parentheses; for log τB (logarithm of intrinsic efficacy of the modulator) / log αβ (logarithm of functional cooperativity between ACh and modulator): operational model; for log αβ (logarithm of functional cooperativity between ACh and modulator): pKB constrained to binding value; for activation at 1 µM: read-out: Δbaseline [1 μM]: change in basal response in presence of M1 PAM compared to control curve; for activation at 10 µM: read-out: Δbaseline [10 μM]: change in basal response in presence of M1 PAM compared to control curve
T1 construct: expressed in transfected cells
T1 sequence (P11229 1-460): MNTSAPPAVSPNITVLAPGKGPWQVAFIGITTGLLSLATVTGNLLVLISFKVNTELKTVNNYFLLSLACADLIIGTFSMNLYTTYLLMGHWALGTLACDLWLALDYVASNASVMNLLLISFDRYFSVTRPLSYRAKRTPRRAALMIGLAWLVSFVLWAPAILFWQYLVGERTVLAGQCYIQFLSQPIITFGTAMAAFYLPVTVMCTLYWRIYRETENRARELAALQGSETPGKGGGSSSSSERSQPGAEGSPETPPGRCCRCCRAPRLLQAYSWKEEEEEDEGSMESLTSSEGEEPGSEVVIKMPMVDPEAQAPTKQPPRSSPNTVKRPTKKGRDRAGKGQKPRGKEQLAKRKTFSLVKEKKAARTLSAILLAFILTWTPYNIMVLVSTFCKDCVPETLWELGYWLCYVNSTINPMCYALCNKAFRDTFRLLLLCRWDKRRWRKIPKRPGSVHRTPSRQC

hM1 mAChR [2] = biological target: T1, hM1 mAChR; assay: Whole-cell [3H]NMS equilibrium competition radioligand binding; settings: [3H]NMS binding; for α (binding cooperativity with ACh): antilog
Protocol: To determine the affinity (pKB) of the allosteric modulators for the allosteric site, and their binding cooperativity with ACh (log αACh) at the M1 mAChR, whole cell equilibrium competition binding studies were performed, using [^3H]NMS to label the orthosteric site.
FlpIn Chinese hamster ovary (CHO) cells stably expressing the hM1 mAChR were grown in Dulbecco’s modified Eagle’s medium (DMEM) (Invitrogen, Carlsbad, CA) supplemented with 5% foetal bovine serum (FBS) (Thermo-Trace, Melbourne, Australia) and 300 μg/mL G418 (Invitrogen, Carlsbad, CA). The cells were plated at 50,000 cells per well of 96-well white clear bottom plates (Greiner Bio-one, Kremsmünster, Austria), and were grown overnight. The following day, cells were washed twice with Phosphate Buffered Saline (PBS), and incubated with increasing concentrations of ACh (Sigma) in the absence or presence of increasing concentrations of each modulator and 0.2 nM [^3H]NMS (PerkinElmer Life Sciences) in binding buffer (20 mM HEPES, 100 mM NaCl, 10 mM MgCl2, pH 7.4) for 5 h at room temperature. Nonspecific binding was determined using atropine at the final concentration of 10 μM. The assays were terminated by rapid removal of the unbound radioligand followed by two washes with 100 μL/well ice-cold 0.9% NaCl buffer. Radioactivity was determined by addition of 100 μL/well Ultima gold (PerkinElmer Life Sciences) and counting in a MicroBeta plate reader (PerkinElmer Life Sciences).
Binding interaction studies with allosteric ligands were fitted to the following allosteric ternary complex model [Eq. (2)][15] Y=Bmax|A|/[Λ]+[KAKB/α^′[B]+KB][1+[I]/K1+[B]/KB+α[I][B]/KIKB] where Bmax is the total number of receptors, [A], [B] and [I] denote the concentrations of radioligand, allosteric modulator, and orthosteric ligand, respectively; KA, KB and KI are their respective equilibrium dissociation constants. α’ and α are the affinity cooperativity factors between the allosteric ligand and radioligand or the allosteric modulator and ACh, respectively. Values of α or α’ > 1 denote positive cooperativity, values < 1 but > 0 denote negative cooperativity, and a value of 1 indicates neutral coopera-tivity.

[3] = 1 μM modulator, FlpIn CHO hM1 cells, mean ± SEM, 3 experiments
[4] = 10 μM modulator, FlpIn CHO hM1 cells, mean ± SEM, 3 experiments
[5] = allosteric ternary complex model, mean ± SEM, read-out: pKB (negative logarithm of the allosteric modulator equilibrium dissociation constant) (converted)

ΔpEC50 [1 μM]: change in ACh pEC50 in presence of M1 PAM compared to control curve (hM1 mAChR [1]; [3]) | ΔpEC50 [10 μM]: change in ACh pEC50 in presence of M1 PAM compared to control curve (hM1 mAChR [1]; [4]) | αβ (functional cooperativity with ACh) (hM1 mAChR [1]) | τB (intrinsic efficacy of the modulator) (hM1 mAChR [1]) | log τB (logarithm of intrinsic efficacy of the modulator) (hM1 mAChR [1]) | log αβ (logarithm of functional cooperativity between ACh and modulator) (hM1 mAChR [1]) | activation at 1 µM (hM1 mAChR [1]) | activation at 10 µM (hM1 mAChR [1]) | Kb (hM1 mAChR [2]; KB, antilog of pKB, in parentheses) | α (binding cooperativity with ACh) (hM1 mAChR [2]; in parentheses) | log αACh (logarithm of binding cooperativity between ACh and modulator) (hM1 mAChR [2]; mean ± SEM) | Kb (hM1 mAChR [2]; pKB (negative logarithm of the allosteric modulator equilibrium dissociation constant), allosteric ternary complex model, mean ± SEM) | activation at 1 µM (hM1 mAChR [1]; [3]) | activation at 10 µM (hM1 mAChR [1]; [4]) | Kb (hM1 mAChR [2]; [5]) | SMILES
1.52±0.14 | 1.28±0.42 | 363 | 6 | 0.78±0.02 | 2.56±0.07 | 55.1 ± 2.4% | 85.3 ± 2.4% | 3 µM | 240 | 2.38±0.13 | 3.16 µM |  |  |  | Cn1cc(-c2ccc(COc3ccccc3-c3cc(=O)n(C4CCCCC4O)cn3)cc2)cn1 (stereo not shown) [Compound 2, 3-(2-Hydroxycyclohexyl)-6-(2-((4-(1-methyl-1H-pyrazol-4-yl)benzyl)oxy)phenyl)pyrimidin-4(3H)-one]
0.73±0.08 | 1.33±0.17 | 118 | 3 | 0.45±0.03 | 2.07±0.08 |  |  |  | 72 | 1.86±0.28 |  | 2.1 ± 2.1% | 63.6 ± 2.3% | 16.6 µM | CN(C)C(=O)Cn1ccc(-c2ccccc2OCc2ccc(-c3cnn(C)c3)cc2)cc1=O [Compound 13c, N,N-Dimethyl-2-(4-(2-((4-(1-methyl-1H-pyrazol-4-yl)benzyl)oxy)phenyl)-2-oxopyridin-1(2H)-yl)acetamide]
0.76±0.07 | 1.41±0.10 | 316 | 4 | 0.56±0.05 | 2.50±0.08 |  |  |  | 240 | 2.38±0.39 |  | 4.8 ± 1.9% | 20.5 ± 2.5% | 38 µM | Cn1cc(-c2ccc(COc3ncccc3-c3ccn(C4CCCCC4O)c(=O)c3)cc2)cn1 (stereo not shown) [Compound 7f, 1’-(2-Hydroxycyclohexyl)-2-((4-(1-methyl-1H-pyrazol-4-yl)benzyl)oxy)-[3,4’-bipyridin]-2’(1’H)-one]
